From the supplement of paper PMC12463676, “Small-molecule dissolution of stress granules by redox modulation benefits ALS models” (Nature Chemical Biology, 2025) come the findings set out here.

Compound in one test: NC(=O)CCCCC1CCSS1 [lipoamide]
Description: thermal stability z-score vs DMSO; higher = more thermally stabilized by treatment. The note with it: HeLa, lipoamide concentration 100 µM. As to the method: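 Cellular thermal proteome profiling in HeLa cells. Cells were treated with 100 µM lipoamide for 1 h, with or without 1 mM arsenate for a further 1 h, then heated to ten temperatures (37-66.3 °C), and soluble protein was quantified by TMT mass spectrometry relative to 0.1% DMSO controls. The thermal stability score (sum of log2 fold changes minus the abundance score) was transformed to a z-score; mean of n = 3 experiments.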

Compound in another test: O=[As]([O-])(O)O.[K+] [potassium arsenate]
The test is described as above. The note with it: HeLa; arsenate concentration 1 mM. As to the method:
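Cellular thermal proteome profiling in HeLa cells treated with 1 mM arsenate for 1 h (DMSO pretreatment), heated to ten temperatures (37-66.3 °C). Soluble protein was quantified by TMT mass spectrometry relative to DMSO controls; the thermal stability score was transformed to a z-score; mean of n = 3 experiments.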

The mark [1] stands for this setting: arsenate co-treatment: 1 mM arsenate 1 h.
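Also: each temperature applied for 3 min, abundance score taken as mean log2 fold change at the two lowest temperatures, z-score obtained by mean subtraction and division by SD.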

Chain of UniProt Q9H1E3 (Q9H1E3 whole entry): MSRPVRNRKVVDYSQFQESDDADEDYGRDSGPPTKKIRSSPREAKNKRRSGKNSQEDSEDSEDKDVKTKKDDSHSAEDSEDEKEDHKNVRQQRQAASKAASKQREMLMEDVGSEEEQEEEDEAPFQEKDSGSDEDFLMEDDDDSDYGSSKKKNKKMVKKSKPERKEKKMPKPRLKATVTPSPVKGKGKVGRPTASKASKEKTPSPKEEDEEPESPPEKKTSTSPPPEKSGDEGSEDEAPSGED
Chain of UniProt Q86VQ1 (Q86VQ1 whole entry): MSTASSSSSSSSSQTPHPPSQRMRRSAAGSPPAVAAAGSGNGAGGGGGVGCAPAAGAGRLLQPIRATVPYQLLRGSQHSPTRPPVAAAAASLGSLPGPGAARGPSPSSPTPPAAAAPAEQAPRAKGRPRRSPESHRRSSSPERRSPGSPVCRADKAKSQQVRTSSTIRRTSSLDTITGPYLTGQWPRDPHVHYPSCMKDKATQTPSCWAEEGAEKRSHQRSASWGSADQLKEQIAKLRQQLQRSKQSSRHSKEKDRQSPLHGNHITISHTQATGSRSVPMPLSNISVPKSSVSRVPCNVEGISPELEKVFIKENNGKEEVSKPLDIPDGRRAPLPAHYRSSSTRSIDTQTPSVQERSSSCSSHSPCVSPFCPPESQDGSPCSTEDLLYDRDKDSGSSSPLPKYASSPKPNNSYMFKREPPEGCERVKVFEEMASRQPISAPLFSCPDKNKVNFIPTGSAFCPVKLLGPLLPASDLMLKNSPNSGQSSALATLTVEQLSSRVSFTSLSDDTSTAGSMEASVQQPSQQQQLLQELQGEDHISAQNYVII
Chain of UniProt O00141 (O00141 whole entry): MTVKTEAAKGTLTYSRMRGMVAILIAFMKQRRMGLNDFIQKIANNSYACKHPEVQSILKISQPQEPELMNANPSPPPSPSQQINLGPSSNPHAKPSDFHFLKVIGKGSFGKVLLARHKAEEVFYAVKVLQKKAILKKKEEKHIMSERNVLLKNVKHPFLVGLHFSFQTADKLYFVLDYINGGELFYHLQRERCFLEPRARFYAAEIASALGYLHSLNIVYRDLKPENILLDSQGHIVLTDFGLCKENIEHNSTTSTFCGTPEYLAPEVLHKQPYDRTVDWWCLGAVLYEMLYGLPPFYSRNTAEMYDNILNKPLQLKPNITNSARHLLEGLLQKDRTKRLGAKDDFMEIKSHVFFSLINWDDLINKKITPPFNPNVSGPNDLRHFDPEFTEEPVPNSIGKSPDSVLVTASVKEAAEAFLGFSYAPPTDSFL
Chain of UniProt Q9NRR5 (Q9NRR5 whole entry): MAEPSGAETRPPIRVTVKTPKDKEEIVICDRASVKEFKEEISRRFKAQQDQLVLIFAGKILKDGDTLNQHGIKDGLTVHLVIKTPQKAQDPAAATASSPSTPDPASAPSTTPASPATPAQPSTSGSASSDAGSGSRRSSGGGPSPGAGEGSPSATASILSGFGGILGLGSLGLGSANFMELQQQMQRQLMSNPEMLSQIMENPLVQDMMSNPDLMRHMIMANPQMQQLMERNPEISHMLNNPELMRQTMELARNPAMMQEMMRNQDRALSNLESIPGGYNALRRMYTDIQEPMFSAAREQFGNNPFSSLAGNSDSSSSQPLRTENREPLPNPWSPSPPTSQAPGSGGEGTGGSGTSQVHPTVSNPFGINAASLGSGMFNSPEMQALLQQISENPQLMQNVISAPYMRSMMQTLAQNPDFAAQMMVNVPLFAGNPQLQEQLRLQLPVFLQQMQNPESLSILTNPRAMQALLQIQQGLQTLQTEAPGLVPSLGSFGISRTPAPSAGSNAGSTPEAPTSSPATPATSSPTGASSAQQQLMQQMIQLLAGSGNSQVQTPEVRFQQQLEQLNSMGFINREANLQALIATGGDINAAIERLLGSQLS
Chain of UniProt O15116 (O15116 whole entry): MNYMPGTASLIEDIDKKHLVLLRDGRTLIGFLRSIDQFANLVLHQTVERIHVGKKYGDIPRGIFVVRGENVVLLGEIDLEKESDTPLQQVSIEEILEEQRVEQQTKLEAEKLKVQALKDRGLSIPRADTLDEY
Chain of UniProt P35241 (P35241 whole entry): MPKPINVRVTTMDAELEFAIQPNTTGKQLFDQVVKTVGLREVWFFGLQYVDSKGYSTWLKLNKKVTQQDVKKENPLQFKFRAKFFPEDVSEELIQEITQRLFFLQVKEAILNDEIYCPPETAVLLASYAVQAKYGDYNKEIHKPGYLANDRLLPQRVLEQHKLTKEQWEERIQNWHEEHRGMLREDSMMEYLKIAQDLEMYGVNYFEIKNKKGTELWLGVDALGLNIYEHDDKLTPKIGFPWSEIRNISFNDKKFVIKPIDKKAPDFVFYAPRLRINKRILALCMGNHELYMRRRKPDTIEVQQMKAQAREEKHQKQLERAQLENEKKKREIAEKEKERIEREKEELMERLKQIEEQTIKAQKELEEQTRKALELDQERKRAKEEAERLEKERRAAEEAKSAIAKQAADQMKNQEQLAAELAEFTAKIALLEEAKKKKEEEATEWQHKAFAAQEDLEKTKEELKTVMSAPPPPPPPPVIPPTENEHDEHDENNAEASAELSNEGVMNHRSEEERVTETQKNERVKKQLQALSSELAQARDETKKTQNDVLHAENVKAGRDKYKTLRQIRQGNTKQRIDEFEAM
Chain of UniProt P04899 (P04899 whole entry): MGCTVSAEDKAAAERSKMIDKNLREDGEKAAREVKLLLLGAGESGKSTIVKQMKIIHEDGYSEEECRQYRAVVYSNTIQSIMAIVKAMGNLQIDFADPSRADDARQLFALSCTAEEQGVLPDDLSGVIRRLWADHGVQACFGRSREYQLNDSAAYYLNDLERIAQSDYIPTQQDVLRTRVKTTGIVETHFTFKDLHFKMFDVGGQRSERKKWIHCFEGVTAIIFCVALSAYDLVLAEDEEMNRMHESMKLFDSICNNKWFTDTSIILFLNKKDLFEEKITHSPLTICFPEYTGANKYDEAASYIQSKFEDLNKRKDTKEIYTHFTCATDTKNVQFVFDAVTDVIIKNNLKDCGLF
Chain of UniProt Q9BUR4 (Q9BUR4 whole entry): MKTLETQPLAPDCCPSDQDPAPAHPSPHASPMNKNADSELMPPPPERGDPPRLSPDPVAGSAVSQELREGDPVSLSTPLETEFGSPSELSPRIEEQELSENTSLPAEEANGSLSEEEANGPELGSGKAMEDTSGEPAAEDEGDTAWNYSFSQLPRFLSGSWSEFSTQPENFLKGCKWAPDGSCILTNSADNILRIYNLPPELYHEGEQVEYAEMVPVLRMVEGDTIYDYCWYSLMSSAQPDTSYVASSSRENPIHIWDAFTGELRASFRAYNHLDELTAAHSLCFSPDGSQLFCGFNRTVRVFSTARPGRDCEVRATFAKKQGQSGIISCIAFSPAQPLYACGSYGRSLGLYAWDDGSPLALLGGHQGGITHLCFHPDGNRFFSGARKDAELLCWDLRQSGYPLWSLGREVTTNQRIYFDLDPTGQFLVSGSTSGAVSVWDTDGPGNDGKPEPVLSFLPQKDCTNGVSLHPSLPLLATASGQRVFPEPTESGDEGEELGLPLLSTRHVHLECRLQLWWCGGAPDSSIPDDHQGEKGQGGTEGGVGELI
Chain of UniProt Q00535 (Q00535 whole entry, looked up): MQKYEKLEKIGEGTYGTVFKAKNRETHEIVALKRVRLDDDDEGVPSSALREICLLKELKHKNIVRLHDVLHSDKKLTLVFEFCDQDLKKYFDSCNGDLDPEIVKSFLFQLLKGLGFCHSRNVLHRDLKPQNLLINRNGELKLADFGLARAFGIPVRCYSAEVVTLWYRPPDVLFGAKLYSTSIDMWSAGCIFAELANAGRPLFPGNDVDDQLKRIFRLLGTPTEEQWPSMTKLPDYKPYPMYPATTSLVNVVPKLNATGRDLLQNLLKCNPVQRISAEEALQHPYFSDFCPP

For the target NUCKS1 (UniProt Q9H1E3), the values for the thermal stability z-score with lipoamide (setting [1]), with lipoamide (arsenate co-treatment: none) and with potassium arsenate were 0.697, 0.845 and 0.5, respectively.
Turning to SGK1 (UniProt O00141), the thermal stability z-score is 0.0815 with lipoamide (setting [1]), -0.0515 with lipoamide (arsenate co-treatment: none) and 0.187 with potassium arsenate.
In the same order, the values of GNAI2 (UniProt P04899) are 0.83, 0.313 and -0.276.
In the same order, the values of LSM1 (UniProt O15116) are 1.6, 2.05 and 0.83.
In the same order, the values of WRAP53 (UniProt Q9BUR4) are -0.113, -0.15 and -0.337.
Regarding UBQLN4 (UniProt Q9NRR5), the thermal stability z-score was 1.81 with lipoamide (setting [1]), 1.78 with lipoamide (arsenate co-treatment: none) and 0.334 with potassium arsenate.
As to RDX (UniProt P35241), the thermal stability z-score with lipoamide (setting [1]) is 0.749; in the test with lipoamide (arsenate co-treatment: none), 0.45; in the test with potassium arsenate, 0.883.
On to CDK5 (UniProt Q00535), for which the thermal stability z-score with lipoamide (setting [1]) was -0.0682; in the test with lipoamide (arsenate co-treatment: none), 0.212; with potassium arsenate, 0.0671.
In the same order, the values of GLCCI1 (UniProt Q86VQ1) are -0.207, -0.418 and -0.627.
